# Values of other authors in patent US20030073580A1, “Composition for treating cells and method for qualitatively and quantitatively customizing the formulation thereof” (priority 2001, published 2003).
# Read-outs that look alike come from different tables or passages of the source.
# Test system: plant leaves
# [1] = Sulfate 0.1 Mg SO4/L (0.0334 milligrams elemental S)
# [2] = Sulfate 1.0 Mg SO4/L (0.3340 milligrams elemental S)
# [3] = Sulfate 10.0 Mg SO4/L (3.3400 milligrams elemental S)
# [4] = Sulfate 50.0 Mg SO4/L (16.7000 milligrams elemental S)
# [5] = Sulfate 200.0 Mg SO4/L (66.8000 milligrams elemental S)
smiles,measurement,setting,value
O=S(=O)(O)O [Sulfate],Inorganic S,[1],0.003 Percentage of Dry Weight
same,Leaf Dry Wt,[1],1.1 g/plant
same,Nitrate N,[1],1.39 Percentage of Dry Weight
same,Organic N,[1],2.23 Percentage of Dry Weight
same,Organic S,[1],0.11 Percentage of Dry Weight
same,Protein N,[1],0.96 Percentage of Dry Weight
same,Inorganic S,[2],0.003 Percentage of Dry Weight
same,Leaf Dry Wt,[2],2.4 g/plant
same,Nitrate N,[2],1.37 Percentage of Dry Weight
same,Organic N,[2],2.21 Percentage of Dry Weight
same,Organic S,[2],0.12 Percentage of Dry Weight
same,Protein N,[2],1.28 Percentage of Dry Weight
same,Inorganic S,[3],0.009 Percentage of Dry Weight
same,Leaf Dry Wt,[3],3.4 g/plant
same,Nitrate N,[3],0.06 Percentage of Dry Weight
same,Organic N,[3],1.19 Percentage of Dry Weight
same,Organic S,[3],0.17 Percentage of Dry Weight
same,Protein N,[3],2.56 Percentage of Dry Weight
same,Inorganic S,[4],0.100 Percentage of Dry Weight
same,Leaf Dry Wt,[4],4.7 g/plant
same,Nitrate N,[4],0.00 Percentage of Dry Weight
same,Organic N,[4],0.51 Percentage of Dry Weight
same,Organic S,[4],0.26 Percentage of Dry Weight
same,Protein N,[4],3.25 Percentage of Dry Weight
same,Inorganic S,[5],0.360 Percentage of Dry Weight
same,Leaf Dry Wt,[5],4.7 g/plant
same,Nitrate N,[5],0.10 Percentage of Dry Weight
same,Organic N,[5],0.45 Percentage of Dry Weight
same,Organic S,[5],0.25 Percentage of Dry Weight
same,Protein N,[5],3.20 Percentage of Dry Weight
S1SSSSSSS1 [sulfur],free nitrate nitrogen in plant leaves,available sulfur approximately 16.7 mg per liter,zero
same,optimal concentration of available sulfur in a fertilizer mixture,concentration at which free nitrate drops to zero and organic sulfur and protein nitrogen reach their maximum,approximately 16.7 mg per liter
